From publication PMC7930822, “Phase I Trial to Evaluate the Tolerance, Pharmacokinetics and Efficacy of the Broad-Spectrum ErbB Family Inhibitor Larotinib Mesylate in Patients With Advanced Solid Tumors” (Frontiers in Pharmacology, 2021)
Structures can show the parent of a compound that is named as a salt. Where two headings read alike, the source gives them in different places.

Test: phase I plasma pharmacokinetics (non-compartmental, LC-MS/MS)
Format: in vivo, human
Conditions: for AUC(0-t) / AUC(0-inf) / Cmax / half-life / Tmax / Vd/F: human, plasma, po
Description: This was a phase I, single-center, open-label, dose-escalation study conducted at First Hospital of Jilin University, China (registration no.: ChiCTR-OPC-15007153 registered at http://www.chictr.org.cn). Larotinib mesylate hard capsules were produced and supplied by Sunshine Lake Pharma Co., Ltd (Guangdong Province, China) in different unit doses of […] under GMP condition. Seven dose levels were designed in the study: 50, 100, 150, 220, 300, 350, and 400 mg with administration stages labeled cycle 0, cycle 1, and subsequent treatment cycles. Patients received an oral single dose of larotinib mesylate after fasting during a 6-days cycle 0 to evaluate the tolerance and pharmacokinetic characteristics. After cycle 0, larotinib mesylate was continuously administered once daily for 28 days in cycle 1, and the tolerance and pharmacokinetic characteristics of multiple doses were evaluated (Figure 2). The patients who […] disease control (complete response [CR], partial response [PR], or stable disease [SD]) at the end of cycle one were permitted to participate in the subsequent 28-days treatment cycles until progressive disease (PD) or intolerance was observed.
Blood samples (4 ml) for pharmacokinetic analyses were collected in tubes containing K2EDTA anticoagulant. Blood samples were centrifuged at 3,000 rpm for 10 min at 4°C and stored at –80°C until liquid chromatography-mass spectrophotometry (LC-MS/MS) analysis. Urine and fecal samples were collected only when patients were given the150-mg and 220-mg dose levels at sampling time intervals of 0–4, 4–8, 8–12, 12–24, 24–48, 48–72, 72–96 and 96–120 h in cycle 0.
Linear mixed effects model was used to explore the dose exposure relationships. Dose proportionality was concluded if the 95% confidence interval (CI) of the linear regression slope was completely contained within the decision interval (1 + ln (0.8)/ln (8)∼1 + ln (1.25)/ln (8)). For urine and fecal data, the accumulative excretion rates of larotinib and M5 were calculated.
Bioanalysis was performed at Frontage Company (Shanghai, China). Validated high-performance LC-MS/MS method was used to quantify the concentrations of larotinib and M5 in plasma, urine and feces samples. Protein precipitation was employed for plasma, urine and feces processing. Plasma larotinib and M5 concentrations were determined using appropriate calibration curves obtained from standards in the range of 0.5–1,000 ng/ml. The interassay precision of the analysis method were 4.2–5.4% for larotinib and 3.9–4.3% for M5. The interassay accuracy of the analysis method were 100.4–103.4% for larotinib and 102.2–102.9% for M5, respectively.
Statistical analyses were performed using SAS software, version 9.2 (SAS Institute Inc., United States). Descriptive statistics were used to summarize continuous variables as cases, means with standard deviations (SDs), medians, quartiles, maximums and minimums. For categorical variables, frequencies and percentages were used. A linear mixed effects model, relating log-transformed Cmax and AUC parameters to log-transformed dose, was used to investigate dose proportionality.

COc1cc2ncnc(Nc3ccc(F)c(Cl)c3)c2cc1OCCCN1C[C@@H]2OCCO[C@@H]2C1 [larotinib mesylate]
linearity of pharmacokinetics (50–400 mg): No clear linear pharmacokinetic characteristic | time to steady state (continuous once daily administration): 8 days | AUC(0-t) (50 mg, multiple oral administration, 50 mg larotinib mesylate, steady state, read-out: AUC0-t,ss, mean (min–max)): 3570 ng·h/mL | AUC(0-inf) (50 mg, multiple oral administration, 50 mg larotinib mesylate, steady state, read-out: AUC0-∞,ss, mean (min–max)): 4920 ng·h/mL | Cmax (50 mg, multiple oral administration, 50 mg larotinib mesylate, steady state, read-out: Cmax,ss, mean (min–max)): 67.5 ng/mL | half-life (50 mg, multiple oral administration, 50 mg larotinib mesylate, steady state, read-out: T1/2,ss, mean (min–max) (converted)): 61.2 h | Tmax (50 mg, multiple oral administration, 50 mg larotinib mesylate, steady state, read-out: Tmax,ss, median (min–max)): 5 h | Vd/F (50 mg, multiple oral administration, 50 mg larotinib mesylate, steady state, read-out: Vz/F,ss, mean (min–max)): 921 L | AUC(0-t) (50 mg, single oral administration, 50 mg larotinib mesylate, read-out: AUC0-24, mean (min–max)): 245 ng·h/mL | AUC(0-t) (50 mg, single oral administration, 50 mg larotinib mesylate, read-out: AUC0-t, mean (min–max)): 635 ng·h/mL | AUC(0-inf) (50 mg, single oral administration, 50 mg larotinib mesylate, read-out: AUC0-∞, mean (min–max)): 817 ng·h/mL | Cmax (50 mg, single oral administration, 50 mg larotinib mesylate, read-out: Cmax, mean (min–max)): 17.4 ng/mL | half-life (50 mg, single oral administration, 50 mg larotinib mesylate, read-out: T1/2, mean (min–max) (converted)): 56.7 h | Tmax (50 mg, single oral administration, 50 mg larotinib mesylate, read-out: Tmax, median (min–max)): 6 h | Vd/F (50 mg, single oral administration, 50 mg larotinib mesylate, read-out: Vz/F, mean (min–max)): 5070 L | AUC(0-t) (100 mg, multiple oral administration, 100 mg larotinib mesylate, steady state, read-out: AUC0-t,ss, mean (min–max)): 4480 ng·h/mL | AUC(0-inf) (100 mg, multiple oral administration, 100 mg larotinib mesylate, steady state, read-out: AUC0-∞,ss, mean (min–max)): 5200 ng·h/mL | Cmax (100 mg, multiple oral administration, 100 mg larotinib mesylate, steady state, read-out: Cmax,ss, mean (min–max)): 131 ng/mL | half-life (100 mg, multiple oral administration, 100 mg larotinib mesylate, steady state, read-out: T1/2,ss, mean (min–max) (converted)): 44.8 h | Tmax (100 mg, multiple oral administration, 100 mg larotinib mesylate, steady state, read-out: Tmax,ss, median (min–max)): 5 h | Vd/F (100 mg, multiple oral administration, 100 mg larotinib mesylate, steady state, read-out: Vz/F,ss, mean (min–max)): 1400 L | AUC(0-t) (100 mg, single oral administration, 100 mg larotinib mesylate, read-out: AUC0-24, mean (min–max)): 653 ng·h/mL | AUC(0-t) (100 mg, single oral administration, 100 mg larotinib mesylate, read-out: AUC0-t, mean (min–max)): 1240 ng·h/mL | AUC(0-inf) (100 mg, single oral administration, 100 mg larotinib mesylate, read-out: AUC0-∞, mean (min–max)): 1390 ng·h/mL | Cmax (100 mg, single oral administration, 100 mg larotinib mesylate, read-out: Cmax, mean (min–max)): 64.1 ng/mL | half-life (100 mg, single oral administration, 100 mg larotinib mesylate, read-out: T1/2, mean (min–max) (converted)): 43.9 h | Tmax (100 mg, single oral administration, 100 mg larotinib mesylate, read-out: Tmax, median (min–max)): 5 h | Vd/F (100 mg, single oral administration, 100 mg larotinib mesylate, read-out: Vz/F, mean (min–max)): 4580 L | AUC(0-t) (150 mg, multiple oral administration, 150 mg larotinib mesylate, steady state, read-out: AUC0-t,ss, mean (min–max)): 18200 ng·h/mL | AUC(0-inf) (150 mg, multiple oral administration, 150 mg larotinib mesylate, steady state, read-out: AUC0-∞,ss, mean (min–max)): 24600 ng·h/mL | Cmax (150 mg, multiple oral administration, 150 mg larotinib mesylate, steady state, read-out: Cmax,ss, mean (min–max)): 371 ng/mL | half-life (150 mg, multiple oral administration, 150 mg larotinib mesylate, steady state, read-out: T1/2,ss, mean (min–max) (converted)): 61.2 h | Tmax (150 mg, multiple oral administration, 150 mg larotinib mesylate, steady state, read-out: Tmax,ss, median (min–max)): 5 h | Vd/F (150 mg, multiple oral administration, 150 mg larotinib mesylate, steady state, read-out: Vz/F,ss, mean (min–max)): 564 L | AUC(0-t) (150 mg, single oral administration, 150 mg larotinib mesylate, read-out: AUC0-24, mean (min–max)): 1990 ng·h/mL | AUC(0-t) (150 mg, single oral administration, 150 mg larotinib mesylate, read-out: AUC0-t, mean (min–max)): 4780 ng·h/mL | AUC(0-inf) (150 mg, single oral administration, 150 mg larotinib mesylate, read-out: AUC0-∞, mean (min–max)): 5660 ng·h/mL | Cmax (150 mg, single oral administration, 150 mg larotinib mesylate, read-out: Cmax, mean (min–max)): 150 ng/mL | half-life (150 mg, single oral administration, 150 mg larotinib mesylate, read-out: T1/2, mean (min–max) (converted)): 39.3 h | Tmax (150 mg, single oral administration, 150 mg larotinib mesylate, read-out: Tmax, median (min–max)): 5 h | Vd/F (150 mg, single oral administration, 150 mg larotinib mesylate, read-out: Vz/F, mean (min–max)): 1650 L | AUC(0-t) (220 mg, multiple oral administration, 220 mg larotinib mesylate, steady state, read-out: AUC0-t,ss, mean (min–max)): 30200 ng·h/mL | AUC(0-inf) (220 mg, multiple oral administration, 220 mg larotinib mesylate, steady state, read-out: AUC0-∞,ss, mean (min–max)): 43600 ng·h/mL | Cmax (220 mg, multiple oral administration, 220 mg larotinib mesylate, steady state, read-out: Cmax,ss, mean (min–max)): 553 ng/mL | half-life (220 mg, multiple oral administration, 220 mg larotinib mesylate, steady state, read-out: T1/2,ss, mean (min–max) (converted)): 75.7 h | Tmax (220 mg, multiple oral administration, 220 mg larotinib mesylate, steady state, read-out: Tmax,ss, median (min–max)): 6 h | Vd/F (220 mg, multiple oral administration, 220 mg larotinib mesylate, steady state, read-out: Vz/F,ss, mean (min–max)): 553 L | AUC(0-t) (220 mg, single oral administration, 220 mg larotinib mesylate, read-out: AUC0-24, mean (min–max)): 3100 ng·h/mL | AUC(0-t) (220 mg, single oral administration, 220 mg larotinib mesylate, read-out: AUC0-t, mean (min–max)): 6360 ng·h/mL | AUC(0-inf) (220 mg, single oral administration, 220 mg larotinib mesylate, read-out: AUC0-∞, mean (min–max)): 8090 ng·h/mL | Cmax (220 mg, single oral administration, 220 mg larotinib mesylate, read-out: Cmax, mean (min–max)): 278 ng/mL | half-life (220 mg, single oral administration, 220 mg larotinib mesylate, read-out: T1/2, mean (min–max) (converted)): 68.2 h | Tmax (220 mg, single oral administration, 220 mg larotinib mesylate, read-out: Tmax, median (min–max)): 5 h | Vd/F (220 mg, single oral administration, 220 mg larotinib mesylate, read-out: Vz/F, mean (min–max)): 2720 L | AUC(0-t) (300 mg, multiple oral administration, 300 mg larotinib mesylate, steady state, read-out: AUC0-t,ss, mean (min–max)): 17900 ng·h/mL | AUC(0-inf) (300 mg, multiple oral administration, 300 mg larotinib mesylate, steady state, read-out: AUC0-∞,ss, mean (min–max)): 22600 ng·h/mL | Cmax (300 mg, multiple oral administration, 300 mg larotinib mesylate, steady state, read-out: Cmax,ss, mean (min–max)): 438 ng/mL | half-life (300 mg, multiple oral administration, 300 mg larotinib mesylate, steady state, read-out: T1/2,ss, mean (min–max) (converted)): 54.3 h
